Where two headings read alike, the source gives them in different places.
Tests used:
[1] = tested on: X4 recombinant HIV (NL4.3-Ren); test: microbe, parasite or virus in culture
[2] = in vitro; settings: human
[3] = tested on: X4 recombinant HIV (NL4.3-Ren); settings: for SI: selectivity index (CC50/IC50): CC50 MT-2 / IC50 HIV NL4.3-Ren
[4] = tested on: VSV pseudotyped HIV (VSV-HIV); test: microbe, parasite or virus in culture; settings: Vesicular stomatitis virus, MT2, 48 h, read-out: IC50 VSV-HIV
[5] = tested on: VSV pseudotyped HIV (VSV-HIV)
[6] = tested on: HIV transcription (pNL4.3-Luc); test: cells; type: cell-based, HIV-1; settings: for IC50: Human immunodeficiency virus 1, MT2, 48 h, read-out: IC50 viral transcription; for SI HIV transcription/HIV infection (specificity index): IC50 transcription / IC50 HIV infection; for effect on HIV transcription (in words): MT-2 cells transfected with NL4.3-Luc, 0.7 to 100 μM
[7] = Human immunodeficiency virus 1, MT2, 48 h, read-out: IC50 (CI95%; R^2) anti-HIV activity, MT-2 cells, NL4.3-Ren, 48 h, mean of at least three independent experiments
[8] = Human immunodeficiency virus 1, MT2, read-out: IC50 HIV, MT-2 cells, HIV infection, values repeated from Table 3 (more decimals)

Compound	IC50 [1, 7]	CC50 [2]	SI: selectivity index (CC50/IC50) [3]	also measured
C=C1C(=O)O[C@@H]([C@@H](C)[C@]2(O)C[C@H](OC(C)=O)[C@]3(O)[C@@H]4C[C@H]5O[C@]56CC=CC(=O)[C@]6(C)[C@H]4CC[C@@]32C)C[C@@]1(C)O [Compound 1, 15α-acetoxy-5β,6β-epoxy-14β,17β,24β-trihydroxy-1-oxo-witha-2,25(27)-dien-26,22-olide]	12.4 µM	> 100 µM	>8	–
CC(=O)O[C@H]1C[C@H]([C@H](C)[C@H]2CC(C)=C(C)C(=O)O2)[C@@]2(C)CC[C@H]3[C@@H](C[C@@H](O)[C@@]4(O)CC=CC(=O)[C@]34C)[C@@]12O [Compound 10, physagulin J]	32.7 µM	> 100 µM	>3.1	–
CC(=O)O[C@H]1[C@@H]2O[C@]2([C@H](C)[C@H]2CC(C)=C(C)C(=O)O2)[C@@]2(C)CC[C@H]3[C@@H](C[C@H]4O[C@]45[C@@H](O)C=CC(=O)[C@]35C)[C@@]12O [Compound 13, physagulin F]	< 2 µM	15.2 µM	15.5	IC50 [4]: 2.67 µM; SI VSV-HIV/HIV (specificity index) [5]: 2.66; IC50 [1, 8]: 1.01 µM; IC50 [6]: 1.14 µM; SI HIV transcription/HIV infection (specificity index) [6]: 1.13; effect on HIV transcription (in words) [6]: inhibited HIV transcription
C[C@H](Cn1cnc2c(N)ncnc21)OCP(=O)(O)O [TFV, tenofovir, reference compound]	1.7 µM	> 100 µM	–	IC50 [1, 8]: 1.69 µM
CC(=O)O[C@H]1[C@@H]2O[C@]2([C@H](C)[C@H]2CC(C)=C(C)C(=O)O2)[C@@]2(C)CC[C@H]3[C@@H](C[C@@H](O)[C@@]4(O)CC=CC(=O)[C@]34C)[C@@]12O [Compound 12, physagulin C]	21.1 µM	> 100 µM	>4.7	–
C=C1C(=O)O[C@@H]([C@@H](C)[C@]2(O)C[C@H](OC(C)=O)[C@]3(O)[C@@H]4C[C@H]5O[C@]56CC=CC(=O)[C@]6(C)[C@H]4CC[C@@]32C)C[C@]1(C)O [Compound 2, 15α-acetoxy-5β,6β-epoxy-14β,17β,24α-trihydroxy-1-oxo-witha-2,25(27)-dien-26,22-olide]	18.7 µM	> 100 µM	>5.3	–
CC(=O)O[C@H]1[C@@H]2O[C@]2([C@H](C)[C@H]2CC(C)=C(C)C(=O)O2)[C@@]2(C)CC[C@H]3[C@@H](C[C@@H](O)[C@]45C=C[C@H](OO4)C(=O)[C@]35C)[C@@]12O [Compound 4, 15α-acetoxy-16β,17β-epoxy-6β,14β-dihydroxy-1-oxo-2α,5α-dioxy-witha-3,24-dien-26,22-olide]	72.7 µM	> 100 µM	>1.4	–
CC(=O)O[C@H]1C=C([C@H](C)[C@H]2CC(C)=C(C)C(=O)O2)[C@@]2(C)CC[C@H]3[C@@H](C[C@H]4O[C@]45CC=CC(=O)[C@]35C)[C@@]12O [Compound 7, physagulin A]	< 2 µM	16 µM	–	IC50 [4]: 3.2 µM; SI VSV-HIV/HIV (specificity index) [5]: 1.64; IC50 [1, 8]: 1.94 µM; fold more potent (antiviral effect) than 17β-hydroxy-withanolide 5 ([3]; IC50 ratio versus compound 5): > 50 fold; fold more potency (anti-HIV) than dihydroxy compound 8 ([3]; IC50 ratio versus compound 8): 35.7 fold; fold more potency (anti-HIV) than halohydrin 9 ([3]; IC50 ratio versus compound 9): 4.7 fold; IC50 [6]: 1.97 µM; SI HIV transcription/HIV infection (specificity index) [6]: 1.02; effect on HIV transcription (in words) [6]: inhibited HIV transcription
CC(=O)O[C@H]1C[C@@](O)([C@H](C)[C@H]2CC(C)=C(C)C(=O)O2)[C@@]2(C)CC[C@H]3[C@@H](C[C@H]4O[C@]45CC=CC(=O)[C@]35C)[C@@]12O [Compound 5, physagulide I]	> 100 µM	> 100 µM	–	–
CC(=O)O[C@H]1C=C([C@H](C)[C@H]2CC(C)=C(C)C(=O)O2)[C@@]2(C)CC[C@H]3[C@@H](C[C@@H](O)[C@@]4(Cl)CC=CC(=O)[C@]34C)[C@]12O [Compound 9, physagulin B]	8.9 µM	> 100 µM	>11.2	–
CC(=O)O[C@H]1C=C([C@H](C)[C@H]2CC(C)=C(C)C(=O)O2)[C@@]2(C)CC[C@H]3[C@@H](C[C@@H](O)[C@]45C=C[C@H](OO4)C(=O)[C@]35C)[C@@]12O [Compound 3, 15α-acetoxy-6β,14β-dihydroxy-1-oxo-2α,5α-dioxy-witha-3,16,24-trien-26,22-olide]	76.1 µM	> 100 µM	>1.3	–
CC(=O)O[C@H]1C=C([C@H](C)[C@H]2CC(C)=C(C)C(=O)O2)[C@@]2(C)CC[C@H]3[C@@H](C[C@@H](O)[C@@]4(O)CC=CC(=O)[C@]34C)[C@]12O [Compound 8, withaminimin]	67.9 µM	> 100 µM	>1.5	–
enfuvirtide	–	–	–	activity as VSV-HIV inhibitor (in words) [5]: not active; IC50 ([5]; VSV pseudotyped (VSV-, 48 h)): > 1 µM; SI VSV-HIV/HIV (specificity index) ([5]; VSV pseudotyped (VSV-, 48 h)): >66.67; IC50 ([3]; read-out: IC50 HIV, MT-2 cells, HIV infection, values repeated from Table 3 (more decimals)): 0.015 µM

From publication PMC8946265, “Withanolide-Type Steroids from Physalis nicandroides Inhibit HIV Transcription” (Journal of Natural Products, 2021)
